Measurements published in PubChem BioAssay AID1963426 (Molecular Pharmacology Branch, DTP, NCI, 2024).
Where “and” joins values, the source holds several entries; their conditions need not be identical. Equal entries are not always repeated.

System: 186277-243-T-J2-PDC complex spheroid growth, % test/control
Assay: Anticancer human tumor 186277-243-T-J2-PDC patient-derived colon adenocarcinoma cell line growth inhibition [Asc]
Conditions: for viability, T/C: stronger effect = lower value; active means viability on the fitted dose curve at most 10% of control; inactive means the rest
Outline: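 Stromal components (HUVEC and hMSC) are co-assembled with the cancer cells into multicellular spheroids. Drugs are then added singly or paired, at concentrations falling by half-log increments from a clinically achievable maximum, capped at 10 microM without known Cmax.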

[1] = curve of first compound, second compound 0.03 µM
[2] = curve of first compound, second compound 0.0949 µM
[3] = curve of first compound, second compound 0.3 µM
[4] = curve of first compound, second compound 0.949 µM
[5] = curve of first compound, second compound 3 µM
[6] = second compound 0.03 µM, first compound 0.0316 µM
[7] = second compound 0.03 µM, first compound 0.1 µM
[8] = second compound 0.03 µM, first compound 0.316 µM
[9] = second compound 0.03 µM, first compound 1 µM
[10] = second compound 0.0949 µM, first compound 0.0316 µM
[11] = second compound 0.0949 µM, first compound 0.1 µM
[12] = second compound 0.0949 µM, first compound 0.316 µM
[13] = second compound 0.0949 µM, first compound 1 µM
[14] = second compound 0.3 µM, first compound 0.0316 µM
[15] = second compound 0.3 µM, first compound 0.1 µM
[16] = second compound 0.3 µM, first compound 0.316 µM
[17] = second compound 0.3 µM, first compound 1 µM
[18] = second compound 0.949 µM, first compound 0.0316 µM
[19] = second compound 0.949 µM, first compound 0.1 µM
[20] = second compound 0.949 µM, first compound 0.316 µM
[21] = second compound 0.949 µM, first compound 1 µM
[22] = second compound 3 µM, first compound 0.0316 µM
[23] = second compound 3 µM, first compound 0.1 µM
[24] = second compound 3 µM, first compound 0.316 µM
[25] = second compound 3 µM, first compound 1 µM
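Further: spheroids exposed to agents for 7 days.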
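Wherever viability, T/C is given: 100% = DMSO vehicle control wells.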

O=C(c1ccc(F)c(F)c1Nc1ccc(I)cc1F)N1CC(O)([C@@H]2CCCCN2)C1 + CCN1C(C(=O)NC23CCC(C(=O)O)(CC2)CC3)C(c2cccc(Cl)c2F)C2(C(=O)Nc3cc(Cl)ccc32)C12CCCCC2
inactive: viability, T/C (second compound 0.03 µM, first compound 0.00316 µM) 119% | viability, T/C (second compound 0.03 µM, first compound 0.01 µM) 105% | viability, T/C [6] 96.8% | viability, T/C [7] 32.2% | viability, T/C (second compound 0.0949 µM, first compound 0.00316 µM) 90% | viability, T/C (second compound 0.0949 µM, first compound 0.01 µM) 96% | viability, T/C [10] 75.8% | viability, T/C [11] 20% | viability, T/C (second compound 0.3 µM, first compound 0.00316 µM) 66.6% | viability, T/C (second compound 0.3 µM, first compound 0.01 µM) 61.9% | viability, T/C [14] 22.6% | viability, T/C (second compound 0.949 µM, first compound 0.00316 µM) 52.2% | viability, T/C (second compound 0.949 µM, first compound 0.01 µM) 45% | viability, T/C [18] 19% | viability, T/C (second compound 3 µM, first compound 0.00316 µM) 31.5% | viability, T/C (second compound 3 µM, first compound 0.01 µM) 26.7% | viability, T/C [22] 11.9%
active: viability, T/C [8] 6.54% | viability, T/C [9] 3.48% | viability, T/C [12] 3.92% | viability, T/C [13] 1.51% | viability, T/C [15] 5.9% | viability, T/C [16] 1.93% | viability, T/C [17] 1.43% | viability, T/C [19] 5.17% | viability, T/C [20] 4.44% | viability, T/C [21] 2.55% | viability, T/C [23] 4.93% | viability, T/C [24] 3.83% | viability, T/C [25] 3.31%
0.0141 µM: IC50 [3]
< 0.00316 µM: IC50 [5]
0.0541 µM: IC50 [2]
0.00449 µM: IC50 [4]
0.0728 µM: IC50 [1]

C=CC(=O)N1CCN(c2nc(=O)n(-c3c(C)ccnc3C(C)C)c3nc(-c4c(O)cccc4F)c(F)cc23)C(C)C1 (stereo not given)
inactive: viability, T/C (compound 0.0316 µM) 105% and 89.2% and 107% | viability, T/C (compound 0.1 µM) 92.6% and 91.2% and 95.4% | viability, T/C (compound 0.316 µM) 92.2% and 96.7% and 90.9% | viability, T/C (compound 1 µM) 102% and 99.8% and 107% | viability, T/C (compound 3.16 µM) 97.3% and 94.7% and 112% | viability, T/C (compound 10 µM) 114% and 102% and 97.3%
> 10 µM: IC50 (curve of compound)

C=C(F)C(=O)N1CCN(c2nc(OCC3CCCN3C)nc3c2CCN(c2cccc4cccc(Cl)c24)C3)CC1CC#N (stereo not given) + CCN1C(C(=O)NC23CCC(C(=O)O)(CC2)CC3)C(c2cccc(Cl)c2F)C2(C(=O)Nc3cc(Cl)ccc32)C12CCCCC2
4 µM: IC50 [3]
1.61 µM: IC50 [4]
4.63 µM: IC50 [2]
< 0.0316 µM: IC50 [5]
4.75 µM: IC50 [1]
inactive: viability, T/C [6] 123% | viability, T/C [7] 107% | viability, T/C [8] 109% | viability, T/C [9] 99.8% | viability, T/C (second compound 0.03 µM, first compound 3.16 µM) 79.5% | viability, T/C [10] 92.7% | viability, T/C [11] 92.5% | viability, T/C [12] 103% | viability, T/C [13] 88.6% | viability, T/C (second compound 0.0949 µM, first compound 3.16 µM) 75.2% | viability, T/C [14] 76.3% | viability, T/C [15] 82.5% | viability, T/C [16] 86.1% | viability, T/C [17] 73.2% | viability, T/C (second compound 0.3 µM, first compound 3.16 µM) 63.7% | viability, T/C [18] 58.2% | viability, T/C [19] 57.5% | viability, T/C [20] 61.4% | viability, T/C [21] 64% | viability, T/C (second compound 0.949 µM, first compound 3.16 µM) 35.6% | viability, T/C [22] 38.4% | viability, T/C [23] 37.3% | viability, T/C [24] 38.8% | viability, T/C [25] 37% | viability, T/C (second compound 3 µM, first compound 3.16 µM) 23.6%
active: viability, T/C (second compound 0.03 µM, first compound 10 µM) 0.44% | viability, T/C (second compound 0.0949 µM, first compound 10 µM) 0.22% | viability, T/C (second compound 0.3 µM, first compound 10 µM) 0.17% | viability, T/C (second compound 0.949 µM, first compound 10 µM) 0.22% | viability, T/C (second compound 3 µM, first compound 10 µM) 0.69%

COc1c(OCCCN2CCOCC2)ccc2c3n(c(=NC(=O)c4cnc(N)nc4)nc12)CCN3 + CNC(C)C(=O)NC1CN(S(=O)(=O)c2cccc(S(=O)(=O)N3CCC4CCC(C(=O)NC(c5ccccc5)c5ccccc5)N4C(=O)C(NC(=O)C(C)NC)C3)c2)CCC2CCC(C(=O)NC(c3ccccc3)c3ccccc3)N2C1=O
0.0982 µM: IC50 (curve of first compound, second compound 0.0316 µM)
0.0863 µM: IC50 (curve of first compound, second compound 0.316 µM)
0.0723 µM: IC50 (curve of first compound, second compound 0.01 µM)
0.0821 µM: IC50 (curve of first compound, second compound 0.1 µM)
inactive: viability, T/C (second compound 0.01 µM, first compound 0.00316 µM) 98.5% | viability, T/C (second compound 0.01 µM, first compound 0.01 µM) 105% | viability, T/C (second compound 0.01 µM, first compound 0.0316 µM) 62.4% | viability, T/C (second compound 0.01 µM, first compound 0.1 µM) 47.4% | viability, T/C (second compound 0.01 µM, first compound 0.316 µM) 25.2% | viability, T/C (second compound 0.01 µM, first compound 1 µM) 19.6% | viability, T/C (second compound 0.0316 µM, first compound 0.00316 µM) 99.3% | viability, T/C (second compound 0.0316 µM, first compound 0.01 µM) 128% | viability, T/C (second compound 0.0316 µM, first compound 0.0316 µM) 77.7% | viability, T/C (second compound 0.0316 µM, first compound 0.1 µM) 54.3% | viability, T/C (second compound 0.0316 µM, first compound 0.316 µM) 24.9% | viability, T/C (second compound 0.0316 µM, first compound 1 µM) 19.1% | viability, T/C (second compound 0.1 µM, first compound 0.00316 µM) 114% | viability, T/C (second compound 0.1 µM, first compound 0.01 µM) 120% | viability, T/C (second compound 0.1 µM, first compound 0.0316 µM) 68.3% | viability, T/C (second compound 0.1 µM, first compound 0.1 µM) 50.9% | viability, T/C (second compound 0.1 µM, first compound 0.316 µM) 25.1% | viability, T/C (second compound 0.1 µM, first compound 1 µM) 18.1% | viability, T/C (second compound 0.316 µM, first compound 0.00316 µM) 108% | viability, T/C (second compound 0.316 µM, first compound 0.01 µM) 113% | viability, T/C (second compound 0.316 µM, first compound 0.0316 µM) 74.9% | viability, T/C (second compound 0.316 µM, first compound 0.1 µM) 48.5% | viability, T/C (second compound 0.316 µM, first compound 0.316 µM) 25.6% | viability, T/C (second compound 0.316 µM, first compound 1 µM) 18.5% | viability, T/C (second compound 1 µM, first compound 0.00316 µM) 108% | viability, T/C (second compound 1 µM, first compound 0.01 µM) 104% | viability, T/C (second compound 1 µM, first compound 0.0316 µM) 75.2% | viability, T/C (second compound 1 µM, first compound 0.1 µM) 48.2% | viability, T/C (second compound 1 µM, first compound 0.316 µM) 21.3% | viability, T/C (second compound 1 µM, first compound 1 µM) 17.7%
0.0848 µM: IC50 (curve of first compound, second compound 1 µM)

CNC(C)C(=O)NC1CN(S(=O)(=O)c2cccc(S(=O)(=O)N3CCC4CCC(C(=O)NC(c5ccccc5)c5ccccc5)N4C(=O)C(NC(=O)C(C)NC)C3)c2)CCC2CCC(C(=O)NC(c3ccccc3)c3ccccc3)N2C1=O (stereo not given)
> 1 µM: IC50 (compound alone, run of 10/03/2022) | IC50 (curve of compound)
inactive: viability, T/C (compound 0.00316 µM) 93.8% and 103% | viability, T/C (compound 0.1 µM) 104% [middle of 15 runs]

Cn1ncnc1[C@H]1c2n[nH]c(=O)c3cc(F)cc(c23)N[C@@H]1c1ccc(F)cc1
inactive: viability, T/C (compound 0.000316 µM) 93% and 95.2% and 74.1% | viability, T/C (compound 0.001 µM) 99.3% and 88.2% and 97.6% | viability, T/C (compound 0.00316 µM) 108% and 104% and 99.5% | viability, T/C (compound 0.01 µM) 116% and 118% and 84.3% | viability, T/C (compound 0.0316 µM) 118% and 122% and 108% | viability, T/C (compound 0.1 µM) 111% and 134% and 100%
> 0.1 µM: IC50 (curve of compound)

COc1c(OCCCN2CCOCC2)ccc2c3n(c(=NC(=O)c4cnc(N)nc4)nc12)CCN3
inactive: viability, T/C (compound 0.00316 µM) 91% and 96.2% and 93.6% | viability, T/C (compound 0.01 µM) 102% and 91% and 105% | viability, T/C (compound 0.0316 µM) 58.9% and 54.5% and 69% | viability, T/C (compound 0.1 µM) 35.2% and 28.6% and 56.5% | viability, T/C (compound 0.316 µM) 17.5% and 17% and 29.3% | viability, T/C (compound 1 µM) 13.2% and 11.8% and 19.8%
0.0522 µM and 0.0413 µM and 0.112 µM: IC50 (curve of compound)
